Measurements from PubChem BioAssay (NCI).
“And” between values parts separate entries of the source, which are not always exact repeats. Equal values may be shown once.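 Results reflect a 48-hour exposure of cells in 96-well plates to compound at five concentrations. At the GI50, growth is halved. At the TGI there is no net growth.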

Tests used:
Experiment in all cases: NCI tumour cell line growth inhibition, 48 h; in the data active means GI50 below about 0.43 µM; inactive means the rest
786-0 renal = test system: 786-0 renal
A498 renal = test system: A498 renal
A549 NSCLC = test system: A549 NSCLC
BT-549 breast = test system: BT-549 breast
COLO 205 colon = test system: COLO 205 colon
DU-145 prostate = test system: DU-145 prostate
EKVX NSCLC = test system: EKVX NSCLC
HCC-2998 colon = test system: HCC-2998 colon
HCT-116 colon = test system: HCT-116 colon
HCT-15 colon = test system: HCT-15 colon
HOP-62 NSCLC = test system: HOP-62 NSCLC
HOP-92 NSCLC = test system: HOP-92 NSCLC
HT29 colon = test system: HT29 colon
KM12 colon = test system: KM12 colon
M14 melanoma = test system: M14 melanoma
MALME-3M melanoma = test system: MALME-3M melanoma
MCF7 breast = test system: MCF7 breast
MDA-MB-231 breast = test system: MDA-MB-231 breast
MDA-MB-435 = test system: MDA-MB-435
MDA-N = test system: MDA-N
NCI-H226 lung = test system: NCI-H226 lung
NCI-H460 lung = test system: NCI-H460 lung
NCI-H522 lung = test system: NCI-H522 lung
OVCAR-3 ovarian = test system: OVCAR-3 ovarian
OVCAR-4 ovarian = test system: OVCAR-4 ovarian
OVCAR-5 ovarian = test system: OVCAR-5 ovarian
PC-3 prostate = test system: PC-3 prostate
SK-MEL-2 melanoma = test system: SK-MEL-2 melanoma
SK-MEL-5 melanoma = test system: SK-MEL-5 melanoma
SK-OV-3 ovarian = test system: SK-OV-3 ovarian
SN12C renal = test system: SN12C renal
SNB-19 CNS = test system: SNB-19 CNS
SW-620 colon = test system: SW-620 colon
TK-10 renal = test system: TK-10 renal
UACC-257 melanoma = test system: UACC-257 melanoma
UO-31 renal = test system: UO-31 renal
ACHN renal = test system: ACHN renal
CAKI-1 renal = test system: CAKI-1 renal
CCRF-CEM leukemia = test system: CCRF-CEM leukemia
HL-60(TB) leukemia = test system: HL-60(TB) leukemia
HS 578T breast = test system: HS 578T breast
IGROV1 ovarian = test system: IGROV1 ovarian
K-562 leukemia = test system: K-562 leukemia
LOX IMVI melanoma = test system: LOX IMVI melanoma
MOLT-4 leukemia = test system: MOLT-4 leukemia
NCI-H23 lung = test system: NCI-H23 lung
NCI/ADR-RES ovarian = test system: NCI/ADR-RES ovarian
OVCAR-8 ovarian = test system: OVCAR-8 ovarian
RPMI-8226 leukemia = test system: RPMI-8226 leukemia
RXF 393 renal = test system: RXF 393 renal
SF-268 CNS = test system: SF-268 CNS
SF-295 CNS = test system: SF-295 CNS
SF-539 CNS = test system: SF-539 CNS
SK-MEL-28 melanoma = test system: SK-MEL-28 melanoma
SNB-75 CNS = test system: SNB-75 CNS
SR leukemia = test system: SR leukemia
T-47D breast = test system: T-47D breast
U251 CNS = test system: U251 CNS
UACC-62 melanoma = test system: UACC-62 melanoma

COc1cc2cc(C(=O)N3CC(CCl)c4c3cc(NC(=O)C(C)Nc3c([N+](=O)[O-])cc(C(=O)NCCN(C)C)cc3[N+](=O)[O-])c3ccccc43)[nH]c2c(OC)c1OC (stereo not given)
0.232 µM: TGI (SK-MEL-5 melanoma)
0.992 µM: TGI (A498 renal)
0.235 µM: TGI (786-0 renal)
0.279 µM: TGI (NCI-H522 lung)
0.551 µM: TGI (OVCAR-4 ovarian)
0.16 µM: TGI (HCC-2998 colon)
0.643 µM: TGI (SN12C renal)
0.371 µM: TGI (MDA-N)
0.0297 µM: TGI (HOP-92 NSCLC)
0.285 µM: TGI (SW-620 colon)
0.419 µM: TGI (HT29 colon)
0.283 µM: TGI (HOP-62 NSCLC)
2.23 µM: TGI (SK-OV-3 ovarian)
1.01 µM: TGI (EKVX NSCLC)
0.362 µM: TGI (A549 NSCLC)
0.192 µM: TGI (COLO 205 colon)
0.909 µM: TGI (SNB-19 CNS)
0.359 µM: TGI (UACC-257 melanoma)
0.374 µM: TGI (M14 melanoma)
1.44 µM: TGI (TK-10 renal)
1.03 µM: TGI (DU-145 prostate)
0.356 µM: TGI (MDA-MB-435)
0.572 µM: TGI (HCT-116 colon)
2.5 µM: TGI (HCT-15 colon)
1.16 µM: TGI (PC-3 prostate)
0.178 µM: TGI (NCI-H460 lung)
0.127 µM: TGI (MCF7 breast)
0.649 µM: TGI (BT-549 breast)
0.159 µM: TGI (SK-MEL-2 melanoma)
0.433 µM: TGI (OVCAR-3 ovarian)
3.35 µM: TGI (UO-31 renal)
0.27 µM: TGI (MALME-3M melanoma)
0.34 µM: TGI (NCI-H226 lung)
0.342 µM: TGI (MDA-MB-231 breast)
0.457 µM: TGI (KM12 colon)
0.544 µM: TGI (OVCAR-5 ovarian)

COc1cc2ncnc3c2cc1OCCCCCN(C)Cc1ccc(Br)cc1N3
> 10 µM: TGI (EKVX NSCLC)
85.4 µM and 9.5 µM: TGI (T-47D breast)
37.5 µM and > 10 µM: TGI (ACHN renal)
71.5 µM and > 10 µM: TGI (HOP-92 NSCLC)
> 100 µM: TGI (786-0 renal) | TGI (A549 NSCLC) | TGI (BT-549 breast) | TGI (CAKI-1 renal) | TGI (CCRF-CEM leukemia) | TGI (COLO 205 colon) | TGI (DU-145 prostate) | TGI (HCC-2998 colon) | TGI (HCT-116 colon) | TGI (HCT-15 colon) | TGI (HL-60(TB) leukemia) | TGI (HOP-62 NSCLC) | TGI (HS 578T breast) | TGI (HT29 colon) | TGI (K-562 leukemia) | TGI (KM12 colon) | TGI (LOX IMVI melanoma) | TGI (M14 melanoma) | TGI (MCF7 breast) | TGI (MDA-MB-435) | TGI (MOLT-4 leukemia) | TGI (NCI-H226 lung) | TGI (NCI-H23 lung) | TGI (NCI-H460 lung) | TGI (NCI/ADR-RES ovarian) | TGI (OVCAR-3 ovarian) | TGI (OVCAR-5 ovarian) | TGI (OVCAR-8 ovarian) | TGI (PC-3 prostate) | TGI (RPMI-8226 leukemia) | TGI (RXF 393 renal) | TGI (SF-268 CNS) | TGI (SF-295 CNS) | TGI (SF-539 CNS) | TGI (SK-MEL-2 melanoma) | TGI (SK-MEL-28 melanoma) | TGI (SK-MEL-5 melanoma) | TGI (SN12C renal) | TGI (SNB-19 CNS) | TGI (SR leukemia) | TGI (SW-620 colon) | TGI (TK-10 renal) | TGI (U251 CNS) | TGI (UACC-257 melanoma) | TGI (UACC-62 melanoma) | TGI (UO-31 renal)
0.851 µM and 0.225 µM: GI50 (NCI-H522 lung)
43.1 µM and > 10 µM: TGI (OVCAR-4 ovarian)
64 µM and > 10 µM: TGI (SNB-75 CNS)
23.3 µM and > 10 µM: TGI (MALME-3M melanoma)
1.09 µM: TGI (SK-OV-3 ovarian)
active: GI50 (ACHN renal) 0.0871 µM and 0.262 µM | GI50 (CAKI-1 renal) 0.288 µM and 0.375 µM | GI50 (EKVX NSCLC) 0.24 µM | GI50 (IGROV1 ovarian) 0.35 µM and 0.31 µM | GI50 (SK-OV-3 ovarian) 0.315 µM | GI50 (TK-10 renal) 0.186 µM and 0.166 µM | GI50 (UO-31 renal) 0.285 µM and 0.267 µM
50.9 µM and > 10 µM: TGI (MDA-MB-231 breast)
17.3 µM and > 10 µM: TGI (A498 renal)
10.6 µM and 4.31 µM: TGI (IGROV1 ovarian)
inactive: GI50 (786-0 renal) 37.4 µM and 5.07 µM | GI50 (A498 renal) 1.35 µM and 0.539 µM | GI50 (A549 NSCLC) 6.23 µM and 1.9 µM | GI50 (BT-549 breast) 21.8 µM and 6.87 µM | GI50 (CCRF-CEM leukemia) 10.2 µM and > 10 µM | GI50 (COLO 205 colon) 5.68 µM and 4.67 µM | GI50 (DU-145 prostate) 0.676 µM and 0.555 µM | GI50 (HCC-2998 colon) 17.7 µM and > 10 µM | GI50 (HCT-116 colon) 13.9 µM and 1.48 µM | GI50 (HCT-15 colon) 0.885 µM and 0.975 µM | GI50 (HL-60(TB) leukemia) 2.94 µM and 3.68 µM | GI50 (HOP-62 NSCLC) 21.7 µM and 8.36 µM | GI50 (HOP-92 NSCLC) 3.61 µM and 1 µM | GI50 (HS 578T breast) 10.2 µM and 1.52 µM | GI50 (HT29 colon) 6.34 µM and 3.35 µM | GI50 (K-562 leukemia) 3.98 µM and 2.93 µM | GI50 (KM12 colon) 13.2 µM and > 10 µM | GI50 (LOX IMVI melanoma) 2.93 µM and 2.12 µM | GI50 (M14 melanoma) 1.94 µM and 0.939 µM | GI50 (MALME-3M melanoma) 1.47 µM and 6.85 µM | GI50 (MCF7 breast) 8.89 µM and 5.35 µM | GI50 (MDA-MB-231 breast) 10.6 µM and 7.51 µM | GI50 (MDA-MB-435) 8.63 µM and 7.39 µM | GI50 (MOLT-4 leukemia) 6.85 µM and 3.88 µM | GI50 (NCI-H226 lung) 26.4 µM and 7.69 µM | GI50 (NCI-H23 lung) 40.8 µM and > 10 µM | GI50 (NCI-H460 lung) 3.44 µM and 1.27 µM | GI50 (NCI/ADR-RES ovarian) 3.34 µM and 2.04 µM | GI50 (OVCAR-3 ovarian) 2.48 µM and 1.76 µM | GI50 (OVCAR-4 ovarian) 2.57 µM and 1.34 µM | GI50 (OVCAR-5 ovarian) 12.9 µM and 1.87 µM | GI50 (OVCAR-8 ovarian) 12 µM and 2.67 µM | GI50 (PC-3 prostate) 4.65 µM and 3.85 µM | GI50 (RPMI-8226 leukemia) 7.39 µM and 3.92 µM | GI50 (RXF 393 renal) 4.03 µM and 1.84 µM | GI50 (SF-268 CNS) 29.5 µM and 4.01 µM | GI50 (SF-295 CNS) 14.1 µM and 5.13 µM | GI50 (SF-539 CNS) > 100 µM | GI50 (SK-MEL-2 melanoma) 6.37 µM and 2.2 µM | GI50 (SK-MEL-28 melanoma) 6.68 µM and 7.54 µM | GI50 (SK-MEL-5 melanoma) 24 µM | GI50 (SN12C renal) 5.45 µM and 1.32 µM | GI50 (SNB-19 CNS) 24.6 µM and > 10 µM | GI50 (SNB-75 CNS) 6.14 µM and 2.91 µM | GI50 (SR leukemia) 9.25 µM and 3.38 µM | GI50 (SW-620 colon) 6.31 µM and 5.72 µM | GI50 (T-47D breast) 0.643 µM and 0.446 µM | GI50 (U251 CNS) 34.3 µM and 5.33 µM | GI50 (UACC-257 melanoma) 17.9 µM and > 10 µM | GI50 (UACC-62 melanoma) 2.35 µM and 0.969 µM

CC1(C)C=[N+]([O-])C(C)(C)N1O
> 10 µM: TGI (786-0 renal) | TGI (A549 NSCLC) | TGI (ACHN renal) | TGI (BT-549 breast) | TGI (CAKI-1 renal) | TGI (CCRF-CEM leukemia) | TGI (COLO 205 colon) | TGI (DU-145 prostate) | TGI (EKVX NSCLC) | TGI (HCC-2998 colon) | TGI (HCT-116 colon) | TGI (HCT-15 colon) | TGI (HL-60(TB) leukemia) | TGI (HOP-62 NSCLC) | TGI (HOP-92 NSCLC) | TGI (HT29 colon) | TGI (K-562 leukemia) | TGI (KM12 colon) | TGI (M14 melanoma) | TGI (MALME-3M melanoma) | TGI (MCF7 breast) | TGI (MDA-MB-231 breast) | TGI (MDA-MB-435) | TGI (MDA-N) | TGI (MOLT-4 leukemia) | TGI (NCI-H226 lung) | TGI (NCI-H23 lung) | TGI (NCI-H460 lung) | TGI (NCI-H522 lung) | TGI (NCI/ADR-RES ovarian) | TGI (OVCAR-3 ovarian) | TGI (OVCAR-4 ovarian) | TGI (OVCAR-5 ovarian) | TGI (OVCAR-8 ovarian) | TGI (PC-3 prostate) | TGI (RPMI-8226 leukemia) | TGI (RXF 393 renal) | TGI (SF-268 CNS) | TGI (SF-295 CNS) | TGI (SK-MEL-2 melanoma) | TGI (SN12C renal) | TGI (SNB-19 CNS) | TGI (SR leukemia) | TGI (SW-620 colon) | TGI (T-47D breast) | TGI (TK-10 renal) | TGI (U251 CNS) | TGI (UACC-257 melanoma) | TGI (UO-31 renal)
